Converted amounts (≈) assume the structure as drawn. “Also recorded” adds a separate entry of the source. Like-named read-outs stand apart in the source and are kept apart here.
Assays:
[1] = system: Cutibacterium acnes (DMST 14916); experiment: MIC and MBC by modified broth microdilution; type: cell-based; conditions: C. acnes
Experimental: (§1) Microorganisms that cause skin infection, such as Staphylococcus aureus (ATTC 25923), Staphylococcus epidermidis (TISTR 517), Cutibacterium acnes (DMST 14916) and methicillin-resistant Staphylococcus aureus (DMST20654), were selected for this study. The isolated compounds were determined for minimum inhibitory concentration (MIC) in a 96-well plate by modified broth microdilution method and minimum bactericidal concentration (MBC). Oxacillin was used as positive controls for S. aureus, S. epidermidis and C. acnes, while vancomycin was used for MRSA.

[2] = system: Staphylococcus aureus (ATTC 25923); experiment: MIC and MBC by modified broth microdilution; type: cell-based; conditions: S. aureus; for MBC / MIC: Staphylococcus aureus
Experimental: as §1

[3] = system: Staphylococcus epidermidis (TISTR 517); experiment: MIC and MBC by modified broth microdilution; type: cell-based; conditions: S. epidermidis; for MBC / MIC: Staphylococcus epidermidis, TISTR517
Experimental: as §1

[4] = system: methicillin-resistant Staphylococcus aureus (DMST20654); experiment: MIC and MBC by modified broth microdilution; type: cell-based; conditions: MRSA; for MBC / MIC: Staphylococcus aureus
Experimental: as §1

tyrosinase enzyme = experiment: Enzymatic antityrosinase activity, Dopachrom method with L-DOPA; type: biochemical, mushroom; conditions: for IC50 on tyrosinase inhibitory activity: L-DOPA substrate, pH 6.8, 25 °C; for IC50 Values: Experiment of Table 4, reference for the correlation, in µg/mL
Experimental: The tyrosinase activity was measured by the Dopachrom method using L-DOPA as a substrate. Briefly, 140 μL phosphate buffer (pH 6.8), 20 μL sample solution, and 20 μL tyrosinase solution (203.3 unit/mL) were mixed at 25 °C for 10 min, after which 20 μL of 0.85 mM L-Dopa was added. The optical density (OD) was measured at 492 nm. After incubation at 25 °C for 20 min, the optical density was measured again.

B16-F1 melanoma cells = experiment: Melanin content; type: cell-based, murine; conditions: 50 µg/mL
Experimental: (§2) The murine B16-F1 melanoma cells (CLS-400122, CLS Cell Lines Service GmbH, Germany) were cultured in Dulbecco’s modified Eagle’s medium, which was supplemented with 10% fetal bovine serum in a humidified incubator at 37 C with 5% CO2. When cells reached 70–80% confluence cell viability, cellular tyrosinase activity and melanin content were measured. The B16-F1 cells were seeded at a density of 3 × 10^5 cells/well on 12-well plates and cultured for 12 h. Cells were treated with test samples and control (0.5% DMSO). After 48 h of incubation, cells were lysed with RIPA and centrifuged at 14,000 rpm for 20 min (4 °C) to separate the cell pellet and supernatant. The supernatant was collected and the protein content was determined by the Bradford method using bovine serum albumin as standard. The supernatant was incubated and 2 mg/mL L-Dopa was added to a 96-well plate at 25 °C for 1 h. After that, optical densities were measured at 492 nm. Then, tyrosinase inhibition was calculated, while the cell pellet was dissolved with 1 M NaOH and incubated at 55 °C for 1 h. Melanin concentration was calculated by comparing the absorbance at 475 nm using a standard curve of synthetic melanin.

[5] = system: MITF, tyrosinase, TRP1 and TRP2 in B16-F1 cells; experiment: Western blot of melanogenic protein expression; type: cell-based, murine; conditions: 25 and 50 µg/mL
Description: The protein content of the supernatant was quantified by the Bradford method using bovine serum albumin as standard. Equal amounts of protein were separated by 40% acrylamide/Bissolution (InvitrogenThermoFisher Scientific, Waltham, MA, USA) and transferred onto nitrocellulose membranes (BIO-RAD Laboratories, Feldkirchen, Germany). The membranes were probed with antibodies against microphthalmia-associated transcription factor; MITF (ThermoFisher Scientific #MA5-16214, Waltham, MA, USA), tyrosinase (ThermoFisher Scientific #35-6000, Waltham, MA, USA), tyrosinase-related protein 1; TRP1 (ThermoFisher Scientific #OSR00085W, Waltham, MA, USA) and tyrosinase-related protein 2; TRP2 (ThermoFisher Scientific #PA5-36485, Waltham, MA, USA). The proteins were detected using an enhanced chemiluminescence kit (BIO-RAD Laboratories, Hercules, CA, USA). Quantitative analysis was performed using a digital imager (UPV UVP, VisionWork^T LS, Image Acquisition & Analysis Software). The method applied was modified from Western Blot analysis for UGT1A family by the co-author, Asst. Prof. Dr. Wandee Udomuksorn, Pharmacology Program, Division of Health and Applied Science, Faculty of Science, Prince of Songkla University, Thailand., Department of Clinical Pharmacology, Flinders Medical Center.

[6] = system: tyrosinase in B16-F1 melanoma cells; experiment: Intracellular antityrosinase activity; type: cell-based, murine; conditions: 50 µg/mL, 48 h
Experimental: as §2

tyrosinase = system: tyrosinase; parameters: method as in PMID 27598113; conditions: cited from earlier work
[7] = listed as 3, 4, 3′, 5′-tetrahydroxybibenzyl

MIC [1] [µg/mL]	MIC [2] [µg/mL]	MIC [3] [µg/mL]	MIC ([4]; read-out: MIC) [µg/mL]	IC50 on tyrosinase inhibitory activity (tyrosinase enzyme) [µg/mL]	IC50 Values (tyrosinase enzyme)	Compound	MBC [1] [µg/mL]	MBC [2] [µg/mL]	MBC [3] [µg/mL]	MBC ([4]; read-out: MBC) [µg/mL]	Inhibitory effect (in words) [2]	Inhibitory effect (in words) [3]	Inhibitory effect (in words) [4]	Intracellular antityrosinase activity [6]	Melanin content (B16-F1 melanoma cells)	Melanogenic protein expression [5]	further results
> 256	128 (≈ 520 µM)	128 (≈ 520 µM)	64 (≈ 260 µM)	35.65 ± 0.98 (≈ 145 µM)		Oc1cc(O)cc(CCc2ccc(O)c(O)c2)c1 [Compound 4, 3,4, 3′, 5′-tetrahydroxybibenzyl]	> 256	256 (≈ 1040 µM)	> 256	256 (≈ 1040 µM)							Melanin content (B16-F1 melanoma cells; [7]): increased the melanin content; also recorded: increase melanin content; Melanogenic protein expression [5, 7]: increasing microphthalmia-associated transcription factor (MITF) and tyrosinase (TYR); also recorded: upregulating the melanogenic protein expression
128 (≈ 392 µM)	16 (≈ 49 µM)	16 (≈ 49 µM)	16 (≈ 49 µM)	109.64 ± 0.89 (≈ 336 µM)	109.64	CC(=CCc1c(O)cc(-c2cc3ccc(O)cc3o2)cc1O)CO [Compound 1, ω-Hydroxymoracin C]	> 256	32 (≈ 98.1 µM)	32 (≈ 98.1 µM)	> 256	stronger inhibitory effect	stronger inhibitory effect	stronger inhibitory effect	exhibited antityrosinase activity	could decrease the melanin content		Melanogenic protein expression ([5]; listed as ω-Hydroxymoracin C): downregulated the melanogenic protein expression; Melanogenic protein expression ([5]; listed as ω-hydroxymoracin C): decreasing microphthalmia-associated transcription factor (MITF), tyrosinase (TYR), tyrosinase-related protein 1 (TRP1) and tyrosinase-related protein 2 (TRP2)
> 256	256 (≈ 1060 µM)	64 (≈ 264 µM)	64 (≈ 264 µM)	47.34 ± 0.78 (≈ 195 µM)	47.34	Oc1cc(O)cc(-c2cc3ccc(O)cc3o2)c1 [Compound 2, moracin M]	> 256	> 256	> 256	> 256	weak inhibitory effect	weak inhibitory effect	weak inhibitory effect	exhibited antityrosinase activity	could decrease the melanin content	decreasing microphthalmia-associated transcription factor (MITF), tyrosinase (TYR), tyrosinase-related protein 1 (TRP1) and tyrosinase-related protein 2 (TRP2); also recorded: downregulated the melanogenic protein expression	
128 (≈ 412 µM)	32 (≈ 103 µM)	128 (≈ 412 µM)	32 (≈ 103 µM)	128.67 ± 1.21 (≈ 415 µM)	128.67	CC(C)=CCc1c(O)cc(-c2cc3ccc(O)cc3o2)cc1O [Compound 3, moracin C]	> 256	64 (≈ 206 µM)	> 256	64 (≈ 206 µM)	stronger inhibitory effect	stronger inhibitory effect	stronger inhibitory effect	exhibited antityrosinase activity	could decrease the melanin content	decreasing microphthalmia-associated transcription factor (MITF), tyrosinase (TYR), tyrosinase-related protein 1 (TRP1) and tyrosinase-related protein 2 (TRP2); also recorded: downregulated the melanogenic protein expression	
> 256	> 256	64 (≈ 262 µM)	128 (≈ 524 µM)	149.73 ± 0.86 (≈ 613 µM)	149.73	Oc1cc(O)cc(/C=C/c2ccc(O)c(O)c2)c1 [Compound 5, piceatannol]	> 256	> 256	128 (≈ 524 µM)	> 256					increased the melanin content; also recorded: increase melanin content	increasing microphthalmia-associated transcription factor (MITF) and tyrosinase (TYR); also recorded: upregulating the melanogenic protein expression	

Further lines, the compound ahead of its results:

Compound	MIC [1] [µg/mL]	MIC [2] [µg/mL]	MIC [3] [µg/mL]	MIC ([4]; read-out: MIC) [µg/mL]	IC50 on tyrosinase inhibitory activity (tyrosinase enzyme) [µg/mL]	IC50 Values (tyrosinase enzyme)	MBC [1] [µg/mL]	MBC [2] [µg/mL]	MBC [3] [µg/mL]	MBC ([4]; read-out: MBC) [µg/mL]	Inhibitory effect (in words) [2]	Inhibitory effect (in words) [3]	Inhibitory effect (in words) [4]	Intracellular antityrosinase activity [6]	Melanin content (B16-F1 melanoma cells)	Melanogenic protein expression [5]	further results
Cc1onc(-c2ccccc2)c1C(=O)N[C@@H]1C(=O)N2[C@@H]1SC(C)(C)[C@@H]2C(=O)O [Oxa, Oxacillin, reference compound]	0.5 (≈ 1.25 µM)	0.125 (≈ 0.311 µM)	0.5 (≈ 1.25 µM)				0.5 (≈ 1.25 µM)	0.125 (≈ 0.311 µM)	0.5 (≈ 1.25 µM)								
CN[C@H](CC(C)C)C(=O)N[C@H]1C(=O)N[C@@H](CC(N)=O)C(=O)N[C@H]2C(=O)N[C@H]3C(=O)N[C@H](C(=O)N[C@H](C(=O)O)c4cc(O)cc(O)c4-c4cc3ccc4O)[C@H](O)c3ccc(c(Cl)c3)Oc3cc2cc(c3O[C@@H]2O[C@H](CO)[C@@H](O)[C@H](O)[C@H]2O[C@H]2C[C@](C)(N)[C@H](O)[C@H](C)O2)Oc2ccc(cc2Cl)[C@H]1O [Van, Vancomycin, reference compound]																	MBC [4]: 0.5 µg/mL (≈ 0.345 µM); MIC [4]: 0.125 µg/mL (≈ 0.0863 µM)
CC1(C)C=Cc2c(O)cc(-c3cc4ccc(O)cc4o3)cc2O1 [moracin D]																	Antityrosinase activity (in words) (tyrosinase): did not display antityrosinase activity

Source: publication PMC9952338, “Chemical Constituents from Streblus taxoides Wood with Their Antibacterial and Antityrosinase Activities Plus in Silico Study” (Antibiotics, 2023)
